Test results from patent publication US12599672B2, “KRAS proteolysis targeting chimeras” (PAQ Therapeutics Inc., priority 2023, dated 2026).

What was measured:
Type in all cases: cell-based
KRAS G12D = target: T1, KRAS G12D (Homo sapiens, UniProt P01116, G12D); test: KRAS G12D HiBit assay; settings: AsPc-1-KRAS (G12D)-HiBit-KI cell, compound treatment for 24 hours, absolute DC50
T1 construct: AsPc-1-KRAS (G12D)-HiBit-KI cell (Pharmaron); host or cells: AsPc-1-KRAS (G12D)-HiBit-KI cells (HiBiT knock-in at the endogenous KRAS locus)
Method in brief: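 HiBiT luminescence, detected by adding lytic buffer, substrate and LgBiT protein, served as the KRAS G12D read-out. Compounds, serially diluted 3-fold over 10 points from 0.3 mM DMSO stock, were on cells for 24 h; percent inhibition normalized to cells given 0.1% DMSO only.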

KRAS G12V = target: T2, KRAS G12V (Homo sapiens, UniProt P01116, G12V); test: KRAS G12V HiBit assay; settings: SW620-KRAS (G12V)-HiBit-KI cells, compound treatment for 24 hours, class symbols
T2 construct: SW620-KRAS (G12V)-HiBit-KI cell (Pharmaron); host or cells: SW620-KRAS (G12V)-HiBit-KI cells (HiBiT knock-in at the endogenous KRAS locus)
Method in brief: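 Luminescence from lytic Nano-Glo HiBiT detection with LgBiT read KRAS G12V levels after 24 h compound exposure. Dilutions were 10-point, 3-fold, from a 0.3 mM DMSO stock. Degradation activity was normalised to cells given 0.1% DMSO alone.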

KRAS = target: T3, KRAS (Homo sapiens, UniProt P01116); test: KRASamp MSD assay; settings: KE39 (KRAS amplified) cells, treated with test compounds for 24 hr, MSD readout of KRAS degradation
T3 construct: endogenous in cells; host or cells: KE39 (KRAS amplified) cells
Method in brief: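 Degradation DC50 derived by curve fitting, with KRAS levels quantified by MSD electrochemiluminescence (capture/detection antibodies, recombinant WT KRAS standard). Lysates prepared from KE39 cells (KRAS amplified) exposed to test compounds for 24 hr.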

T3 sequence (P01116 1-188 isoform P01116-2): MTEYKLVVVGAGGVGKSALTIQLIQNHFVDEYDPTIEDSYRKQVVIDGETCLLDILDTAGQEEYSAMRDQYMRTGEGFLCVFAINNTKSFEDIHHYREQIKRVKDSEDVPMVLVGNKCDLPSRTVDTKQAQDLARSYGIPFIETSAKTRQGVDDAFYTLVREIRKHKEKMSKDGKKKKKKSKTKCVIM
T1 sequence (P01116 1-188 isoform P01116-2 G12D): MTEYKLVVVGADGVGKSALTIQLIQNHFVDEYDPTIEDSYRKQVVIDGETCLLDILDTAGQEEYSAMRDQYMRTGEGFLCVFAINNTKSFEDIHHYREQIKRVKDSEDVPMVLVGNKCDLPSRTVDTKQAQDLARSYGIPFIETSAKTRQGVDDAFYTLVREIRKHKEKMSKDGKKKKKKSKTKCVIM
T2 sequence (P01116 1-188 isoform P01116-2 G12V): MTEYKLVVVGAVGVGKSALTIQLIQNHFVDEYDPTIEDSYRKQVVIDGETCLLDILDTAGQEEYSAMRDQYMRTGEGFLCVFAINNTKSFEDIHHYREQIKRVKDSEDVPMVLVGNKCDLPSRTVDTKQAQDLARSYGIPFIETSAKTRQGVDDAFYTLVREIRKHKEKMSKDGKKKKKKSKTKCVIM

| SMILES | DC50 (KRAS G12D; class symbols) [nM] | DC50 (KRAS G12V) [nM] | DC50 (KRAS) [nM] | DC50 (KRAS G12D; numeric bounds given in place of class symbols) [nM] |
| --- | --- | --- | --- | --- |
| CCc1c(F)ccc2cc(O)cc(-c3ncc4c(N5CCC[C@@](C)(O)C5)nc(OC[C@@]56CCCN5[C@H](COC(=O)NC5CCN(CC7CCN(c8ccc9c(c8)n(C)c(=O)n9C8CCC(=O)NC8=O)CC7)CC5)CC6)nc4c3F)c12 (stereo partly drawn) [Compound 428, ((3S,7aS)-7a-(((7-(8-ethyl-7-fluoro-3-hydroxynaphthalen-1-yl)-8-fluoro-4-((R)-3-hydroxy-3-methylpiperidin-1-yl)pyrido[4,3-d]pyrimidin-2-yl)oxy)methyl)hexahydro-1H-pyrrolizin-3-yl)methyl (1-((1-(1-(2,6-dioxopiperidin-3-yl)-3-methyl-2-oxo-2,3-dihydro-1H-benzo[d]imidazol-5-yl)piperidin-4-yl)methyl)piperidin-4-yl)carbamate] | < 100 | 10 to 100 | 1 to 10 |  |
| CCc1c(F)ccc2cc(O)cc(-c3ncc4c(N5CCC[C@@](C)(O)C5)nc(OC[C@@]56CCCN5[C@H](COC(=O)N5CCC(CN7CCC(Cc8ccc9c(c8)n(C)c(=O)n9C8CCC(=O)NC8=O)CC7)CC5)CC6)nc4c3F)c12 (stereo partly drawn) [Compound 429, ((3S,7aS)-7a-(((7-(8-ethyl-7-fluoro-3-hydroxynaphthalen-1-yl)-8-fluoro-4-((R)-3-hydroxy-3-methylpiperidin-1-yl)pyrido[4,3-d]pyrimidin-2-yl)oxy)methyl)hexahydro-1H-pyrrolizin-3-yl)methyl 4-((4-((1-(2,6-dioxopiperidin-3-yl)-3-methyl-2-oxo-2,3-dihydro-1H-benzo[d]imidazol-5-yl)methyl)piperidin-1-yl)methyl)piperidine-1-carboxylate] | < 100 | < 10 | < 1 |  |
| CCc1c(F)ccc2cc(O)cc(-c3ncc4c(N5CCC[C@@](C)(O)C5)nc(OC[C@@]56CCCN5[C@H](COC(=O)N5CCC(N7CCC(Cc8ccc9c(c8)n(C)c(=O)n9C8CCC(=O)NC8=O)CC7)CC5)CC6)nc4c3F)c12 (stereo partly drawn) [Compound 430, ((3S,7aS)-7a-(((7-(8-ethyl-7-fluoro-3-hydroxynaphthalen-1-yl)-8-fluoro-4-((R)-3-hydroxy-3-methylpiperidin-1-yl)pyrido[4,3-d]pyrimidin-2-yl)oxy)methyl)hexahydro-1H-pyrrolizin-3-yl)methyl 4-((1-(2,6-dioxopiperidin-3-yl)-3-methyl-2-oxo-2,3-dihydro-1H-benzo[d]imidazol-5-yl)methyl)-[1,4′-bipiperidine]-1′-carboxylate] | < 100 | 10 to 100 | 1 to 10 |  |
| C#Cc1c(F)ccc2cc(O)cc(-c3ncc4c(N5CCCC(F)(F)C5)nc(OC[C@]56CCCN5[C@H](COC(=O)N5CCC(CN7CCC(c8ccc9c(c8)n(C)c(=O)n9C8CCC(=O)NC8=O)CC7)CC5)CC6)nc4c3F)c12 (stereo partly drawn) [Compound 431, ((3S,7aR)-7a-(((4-(3,3-difluoropiperidin-1-yl)-7-(8-ethynyl-7-fluoro-3-hydroxynaphthalen-1-yl)-8-fluoropyrido[4,3-d]pyrimidin-2-yl)oxy)methyl)hexahydro-1H-pyrrolizin-3-yl)methyl 4-((4-(1-(2,6-dioxopiperidin-3-yl)-3-methyl-2-oxo-2,3-dihydro-1H-benzo[d]imidazol-5-yl)piperidin-1-yl)methyl)piperidine-1-carboxylate] |  | < 10 | 1 to 10 | > 100 |
| CCc1c(F)ccc2cc(O)cc(-c3ncc4c(N5CCC[C@@](C)(O)C5)nc(OC[C@@]56CCCN5[C@H](COC(=O)N5CCC(CN7CCC(c8ccc9c(c8)n(C)c(=O)n9C8CCC(=O)NC8=O)CC7)C5)CC6)nc4c3F)c12 (stereo partly drawn) [Compound 433, ((3S,7aS)-7a-(((7-(8-ethyl-7-fluoro-3-hydroxynaphthalen-1-yl)-8-fluoro-4-((R)-3-hydroxy-3-methylpiperidin-1-yl)pyrido[4,3-d]pyrimidin-2-yl)oxy)methyl)hexahydro-1H-pyrrolizin-3-yl)methyl 3-((4-(1-(2,6-dioxopiperidin-3-yl)-3-methyl-2-oxo-2,3-dihydro-1H-benzo[d]imidazol-5-yl)piperidin-1-yl)methyl)pyrrolidine-1-carboxylate] | < 100 | < 10 | 1 to 10 |  |
| CCc1c(F)ccc2cc(O)cc(-c3ncc4c(N5CCC[C@@](C)(O)C5)nc(OC[C@@]56CCCN5[C@H](COC(=O)N5CCCC5CN5CCC(c7ccc8c(c7)n(C)c(=O)n8C7CCC(=O)NC7=O)CC5)CC6)nc4c3F)c12 (stereo partly drawn) [Compound 434, ((3S,7aS)-7a-(((7-(8-ethyl-7-fluoro-3-hydroxynaphthalen-1-yl)-8-fluoro-4-((R)-3-hydroxy-3-methylpiperidin-1-yl)pyrido[4,3-d]pyrimidin-2-yl)oxy)methyl)hexahydro-1H-pyrrolizin-3-yl)methyl 2-((4-(1-(2,6-dioxopiperidin-3-yl)-3-methyl-2-oxo-2,3-dihydro-1H-benzo[d]imidazol-5-yl)piperidin-1-yl)methyl)pyrrolidine-1-carboxylate] | < 100 | 10 to 100 | 1 to 10 |  |
| CCc1c(F)ccc2cc(O)cc(-c3ncc4c(N5CCC[C@@](C)(O)C5)nc(OC[C@@]56CCCN5[C@H](COC(=O)N5CCC(CN7CCC(c8ccc9c(c8)n(C)c(=O)n9C8CCC(=O)NC8=O)C7)CC5)CC6)nc4c3F)c12 (stereo partly drawn) [Compound 435, ((3S,7aS)-7a-(((7-(8-ethyl-7-fluoro-3-hydroxynaphthalen-1-yl)-8-fluoro-4-((R)-3-hydroxy-3-methylpiperidin-1-yl)pyrido[4,3-d]pyrimidin-2-yl)oxy)methyl)hexahydro-1H-pyrrolizin-3-yl)methyl 4-((3-(1-(2,6-dioxopiperidin-3-yl)-3-methyl-2-oxo-2,3-dihydro-1H-benzo[d]imidazol-5-yl)pyrrolidin-1-yl)methyl)piperidine-1-carboxylate] | < 100 | 10 to 100 | 1 to 10 |  |
| CCc1c(F)ccc2cc(O)cc(-c3ncc4c(N5CCC[C@@](C)(O)C5)nc(OC[C@@]56CCCN5[C@H](CN5CCC(CN7CCC(Cc8ccc9c(c8)n(C)c(=O)n9C8CCC(=O)NC8=O)CC7)CC5)CC6)nc4c3F)c12 (stereo partly drawn) [Compound 436, 3-(5-((1-((1-(((3S,7aS)-7a-(((7-(8-ethyl-7-fluoro-3-hydroxynaphthalen-1-yl)-8-fluoro-4-((R)-3-hydroxy-3-methylpiperidin-1-yl)pyrido[4,3-d]pyrimidin-2-yl)oxy)methyl)hexahydro-1H-pyrrolizin-3-yl)methyl)piperidin-4-yl)methyl)piperidin-4-yl)methyl)-3-methyl-2-oxo-2,3-dihydro-1H-benzo[d]imidazol-1-yl)piperidine-2,6-dione] | < 100 | 10 to 100 | 1 to 10 |  |

More lines, now with the values ahead:

| DC50 (KRAS G12D; class symbols) [nM] | DC50 (KRAS G12V) [nM] | DC50 (KRAS) [nM] | DC50 (KRAS G12D; numeric bounds given in place of class symbols) [nM] | SMILES |
| --- | --- | --- | --- | --- |
| < 100 | < 10 | < 1 |  | CCc1c(F)ccc2cc(O)cc(-c3ncc4c(N5CCCC(F)(F)C5)nc(OC[C@@]56CCCN5[C@H](COC(=O)N5CCC(CN7CCC(c8ccc9c(c8)n(C)c(=O)n9C8CCC(=O)NC8=O)CC7)CC5)CC6)nc4c3F)c12 (stereo partly drawn) [Compound 437, ((3S,7aS)-7a-(((4-(3,3-difluoropiperidin-1-yl)-7-(8-ethyl-7-fluoro-3-hydroxynaphthalen-1-yl)-8-fluoropyrido[4,3-d]pyrimidin-2-yl)oxy)methyl)hexahydro-1H-pyrrolizin-3-yl)methyl 4-((4-(1-(2,6-dioxopiperidin-3-yl)-3-methyl-2-oxo-2,3-dihydro-1H-benzo[d]imidazol-5-yl)piperidin-1-yl)methyl)piperidine-1-carboxylate] |
| < 100 | < 10 | < 1 |  | Cn1c(=O)n(C2CCC(=O)NC2=O)c2ccc(C3CCN(C4CC5(CCN(C(=O)OC[C@@H]6CC[C@]7(COc8nc(N9CCC[C@@](C)(O)C9)c9cnc(-c%10cc(O)cc%11ccc(F)cc%10%11)c(F)c9n8)CCCN67)CC5)C4)CC3)cc21 (stereo partly drawn) [Compound 438, ((3S,7aS)-7a-(((8-fluoro-7-(7-fluoro-3-hydroxynaphthalen-1-yl)-4-((R)-3-hydroxy-3-methylpiperidin-1-yl)pyrido[4,3-d]pyrimidin-2-yl)oxy)methyl)hexahydro-1H-pyrrolizin-3-yl)methyl 2-(4-(1-(2,6-dioxopiperidin-3-yl)-3-methyl-2-oxo-2,3-dihydro-1H-benzo[d]imidazol-5-yl)piperidin-1-yl)-7-azaspiro[3.5]nonane-7-carboxylate] |
| < 100 | < 10 | 1 to 10 |  | CCc1c(F)ccc2cc(O)cc(-c3ncc4c(N5CCC[C@@](C)(O)C5)nc(OC[C@@]56CCCN5[C@H](COC(=O)N5CCC(CN7CCC(c8cccc9c8n(C)c(=O)n9C8CCC(=O)NC8=O)CC7)CC5)CC6)nc4c3F)c12 (stereo partly drawn) [Compound 440, ((3S,7aS)-7a-(((7-(8-ethyl-7-fluoro-3-hydroxynaphthalen-1-yl)-8-fluoro-4-((R)-3-hydroxy-3-methylpiperidin-1-yl)pyrido[4,3-d]pyrimidin-2-yl)oxy)methyl)hexahydro-1H-pyrrolizin-3-yl)methyl 4-((4-(1-(2,6-dioxopiperidin-3-yl)-3-methyl-2-oxo-2,3-dihydro-1H-benzo[d]imidazol-4-yl)piperidin-1-yl)methyl)piperidine-1-carboxylate] |
